Test results: US11135320B2, “Radioligands for pretargeted pet imaging and methods of their therapeutic use” (priority 2015, dated 2021)

Columns and labels:
[1] = pretargeting, 24 h interval; Zeglis 2013; cited from earlier work
[2] = system: subcutaneous SW1222 xenografts; test: Pretargeted PET imaging, control experiments; type: in vivo, athymic nude mice
Method: Due to its pharmacokinetic profile, ^64Cu-Tz-SarAr was selected for in vivo pretargeting experiments. To this end, athymic nude mice bearing A33 antigen-expressing SW1222 human colorectal carcinoma tumors were first injected with huA33-TCO (100 μg). After a 24 h interval during which huA33-TCO accumulated at the tumor and cleared from the blood, the mice were injected with ^64Cu-Tz-SarAr (400-450 μCi). The specific activity of the radiotracer was adjusted using cold ^natCu-Tz-SarAr such that the molar ratio of Tz-SarAr:huA33-TCO≈1:1. […] At 1 h post-injection, the activity concentration in the tumor (5.63±0.67% ID/g) was the highest of all tissues surveyed, while the blood (4.2±0.8% ID/g) and kidneys (3.1±0.3% ID/g) were the healthy organs with the highest background activity concentrations. […]
All pretargeted PET imaging experiments were performed on an Inveon PET/CT scanner (Siemens Healthcare Global). […] Static scans were recorded at various time points after injection with a minimum of 30 million coincident events (10-30 min total scan time). […] Activity concentrations (percentage of dose per gram of tissue [% ID/g]) and maximum intensity projections were determined by conversion of the counting rates from the reconstructed images. All of the resulting PET images were analyzed using ASIPro VM™ software. […]

[3] = In vivo stability of ^64Cu-Tz-SarAr (intact fraction in blood); set-up: species or system athymic nude mice
Method: Healthy athymic nude mice were injected with ^64Cu-Tz-SarAr (300-350 μCi) via intravenous tail vein injection. After 15 min, 1 h, or 4 h, the mice were sacrificed via CO2 asphyxiation, and their blood (500 μL) was collected via cardiac puncture in heparinized 1.7 mL microcentrifuge tubes. These tubes were then centrifuged at 10,000 rpm for 10 minutes to separate plasma from red-blood cells. After 10 minutes, the plasma supernatant was then transferred to a new 1.7 mL microcentrifuge tube and placed on ice. Subsequently, 500 μL of ice-cold CH3CN was added to the plasma to precipitate the proteins, and the tubes were vortexed briefly and centrifuged again for 10 min at 10,000 rpm. After this centrifugation, the supernatant was carefully removed and transferred to another 1.7 mL microcentrifuge tube, in which it was subjected to another round of centrifugation at 10,000 rpm for 10 min. After this final centrifugation, the supernatant was again transferred to a clean 1.7 mL microcentrifuge tube. This solution was then analyzed via radio-TLC methods using reverse-phase C18 TLC plates and a mobile phase of 1:1 CH3CN:water (each with 0.1% TFA). Using this method, any free ^64Cu^2+ will remain at the baseline, while ^64Cu-Tz-SarAr and other metabolites will travel up the TLC plate. The fraction of intact ^64Cu-Tz-SarAr was calculated by dividing the integral of the parent compound peak over the integral of the entire radio-TLC chromatogram. All experiments were performed in triplicate.

## O=C([O-])CN1CCN(CC(=O)[O-])CC(Cc2ccc(NC(=O)CCCC(=O)NCc3ccc(-c4nncnn4)cc3)cc2)N(CC(=O)[O-])CC1.[64Cu+2] (stereo not shown) [^64Cu-Tz-NOTA]
[1]
  Adrenals absorbed dose: 0.0251 rad/mCi
  Bladder Wall absorbed dose: 0.0262 rad/mCi
  Brain absorbed dose: 0.0236 rad/mCi
  Breasts absorbed dose: 0.0209 rad/mCi
  Effective Dose: 0.046 rem/mCi
  Gallbladder Wall absorbed dose: 0.0272 rad/mCi
  Heart Wall absorbed dose: 0.0294 rad/mCi
  Kidneys absorbed dose: 0.0315 rad/mCi
  Liver absorbed dose: 0.0311 rad/mCi
  Lower Lg. Int. Wall absorbed dose: 0.166 rad/mCi
  Lungs absorbed dose: 0.0289 rad/mCi
  Muscle absorbed dose: 0.0138 rad/mCi
  Osteogenic Cells absorbed dose: 0.0852 rad/mCi
  Ovaries absorbed dose: 0.0299 rad/mCi
  Pancreas absorbed dose: 0.0258 rad/mCi
  Red Marrow absorbed dose: 0.0530 rad/mCi
  Skin absorbed dose: 0.0194 rad/mCi
  Small Intestine absorbed dose: 0.033 rad/mCi
  Spleen absorbed dose: 0.0180 rad/mCi
  Stomach Wall absorbed dose: 0.0267 rad/mCi
  Testes absorbed dose: 0.0225 rad/mCi
  Thymus absorbed dose: 0.0227 rad/mCi
  Thyroid absorbed dose: 0.0228 rad/mCi
  Total Body absorbed dose: 0.0272 rad/mCi
  Upper Lg. Int. Wall absorbed dose: 0.114 rad/mCi
  Uterus absorbed dose: 0.0277 rad/mCi

## NC12CNCCNCC(NCc3ccc(CNC(=O)CCCC(=O)NCc4ccc(-c5nncnn5)cc4)cc3)(CNCCNC1)CNCCNC2.[64Cu+2] [^64Cu-Tz-SarAr]
[2]; ^64Cu-Tz-SarAr alone, no antibody
  uptake by the tumor (control PET imaging): less than 0.5 % ID/g
[2]; ^64Cu-Tz-SarAr with unmodified huA33
  uptake by the tumor (control PET imaging): less than 0.5 % ID/g
[3]; 15 min post-injection
  % Intact in blood: 96.8±0.8%
[3]; 1 h post-injection
  % Intact in blood: 82.0±3.3%
[3]; 4 h post-injection
  % Intact in blood: 29.0±5.9%
